Measured values taken from PubChem BioAssay AID1963850 (Molecular Pharmacology Branch, DTP, NCI, 2024).

Tested on: 192522-019-R-J2-PDC complex tumor spheroid viability
Test: Anticancer human tumor 192522-019-R-J2-PDC patient-derived colon adenocarcinoma cell line growth inhibition [POLQ]
Conditions: for IC50: curve of first compound; for viability, T/C: stronger effect = lower value
Method in brief: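 Complex spheroid viability model combining PDC tumour cells with endothelial (HUVEC) and MSC stromal cells. Novobiocin, ART-558 or RP6685 were tested singly and in combination with standard and investigational anticancer drugs. Each was titrated in half-log steps from near clinical Cmax, or from 10 microM where Cmax was unknown.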

[1] = second compound 0.0316 µM, first compound 0.0316 µM
[2] = second compound 0.0316 µM, first compound 0.1 µM
[3] = second compound 0.0316 µM, first compound 0.316 µM
[4] = second compound 0.0316 µM, first compound 1 µM
[5] = second compound 0.0316 µM, first compound 3.16 µM
[6] = second compound 0.0316 µM, first compound 10 µM
[7] = second compound 0.1 µM, first compound 0.0316 µM
[8] = second compound 0.1 µM, first compound 0.1 µM
[9] = second compound 0.1 µM, first compound 0.316 µM
[10] = second compound 0.1 µM, first compound 1 µM
[11] = second compound 0.1 µM, first compound 3.16 µM
[12] = second compound 0.1 µM, first compound 10 µM
[13] = second compound 0.316 µM, first compound 0.0316 µM
[14] = second compound 0.316 µM, first compound 0.1 µM
[15] = second compound 0.316 µM, first compound 0.316 µM
[16] = second compound 0.316 µM, first compound 1 µM
[17] = second compound 0.316 µM, first compound 3.16 µM
[18] = second compound 0.316 µM, first compound 10 µM
[19] = second compound 1 µM, first compound 0.0316 µM
[20] = second compound 1 µM, first compound 0.1 µM
[21] = second compound 1 µM, first compound 0.316 µM
[22] = second compound 1 µM, first compound 1 µM
[23] = second compound 1 µM, first compound 3.16 µM
[24] = second compound 1 µM, first compound 10 µM
[25] = second compound 3.16 µM, first compound 0.0316 µM
[26] = second compound 3.16 µM, first compound 0.1 µM
[27] = second compound 3.16 µM, first compound 0.316 µM
[28] = second compound 3.16 µM, first compound 1 µM
[29] = second compound 3.16 µM, first compound 3.16 µM
[30] = second compound 3.16 µM, first compound 10 µM
[31] = second compound 10 µM, first compound 0.0316 µM
[32] = second compound 10 µM, first compound 0.1 µM
[33] = second compound 10 µM, first compound 0.316 µM
[34] = second compound 10 µM, first compound 1 µM
[35] = second compound 10 µM, first compound 3.16 µM
[36] = second compound 10 µM, first compound 10 µM
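Note: spheroids exposed to drugs for seven days before reading.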
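Throughout, for viability, T/C: 100% = DMSO vehicle control viability in luminescence.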

CNCc1ccc(-c2[nH]c3cc(F)cc4c3c2CCNC4=O)cc1 + Cc1cccc(N(C)C(=O)C2C(O)CCN2c2nc(C)cc(C(F)(F)F)c2C#N)c1
IC50 (second compound 0.0316 µM): > 10 µM
IC50 (second compound 0.1 µM): > 10 µM
IC50 (second compound 0.316 µM): > 10 µM
IC50 (second compound 1 µM): > 10 µM
IC50 (second compound 3.16 µM): > 10 µM
IC50 (second compound 10 µM): > 10 µM
viability, T/C [1]: 109%
viability, T/C [2]: 96.2%
viability, T/C [3]: 96.8%
viability, T/C [4]: 100%
viability, T/C [5]: 121%
viability, T/C [6]: 91.2%
viability, T/C [7]: 103%
viability, T/C [8]: 104%
viability, T/C [9]: 112%
viability, T/C [10]: 108%
viability, T/C [11]: 101%
viability, T/C [12]: 111%
viability, T/C [13]: 101%
viability, T/C [14]: 113%
viability, T/C [15]: 111%
viability, T/C [16]: 103%
viability, T/C [17]: 106%
viability, T/C [18]: 102%
viability, T/C [19]: 108%
viability, T/C [20]: 115%
viability, T/C [21]: 103%
viability, T/C [22]: 112%
viability, T/C [23]: 104%
viability, T/C [24]: 110%
viability, T/C [25]: 113%
viability, T/C [26]: 113%
viability, T/C [27]: 102%
viability, T/C [28]: 102%
viability, T/C [29]: 122%
viability, T/C [30]: 110%
viability, T/C [31]: 107%
viability, T/C [32]: 106%
viability, T/C [33]: 112%
viability, T/C [34]: 107%
viability, T/C [35]: 113%
viability, T/C [36]: 108%

COc1ccc([C@@H](O)c2cc(-c3ncnc4cc(N5CCOCC5)ccc34)c(F)cc2Cl)nn1 + Cc1cccc(N(C)C(=O)C2C(O)CCN2c2nc(C)cc(C(F)(F)F)c2C#N)c1
IC50 (second compound 0.0316 µM): > 10 µM
IC50 (second compound 0.1 µM): > 10 µM
IC50 (second compound 0.316 µM): > 10 µM
IC50 (second compound 1 µM): > 10 µM
IC50 (second compound 3.16 µM): > 10 µM
IC50 (second compound 10 µM): > 10 µM
viability, T/C [1]: 102%
viability, T/C [2]: 86%
viability, T/C [3]: 103%
viability, T/C [4]: 83.1%
viability, T/C [5]: 85.9%
viability, T/C [6]: 51.8%
viability, T/C [7]: 100%
viability, T/C [8]: 87.5%
viability, T/C [9]: 90.1%
viability, T/C [10]: 90.8%
viability, T/C [11]: 78.9%
viability, T/C [12]: 61.8%
viability, T/C [13]: 104%
viability, T/C [14]: 95.7%
viability, T/C [15]: 102%
viability, T/C [16]: 91.3%
viability, T/C [17]: 84.9%
viability, T/C [18]: 65%
viability, T/C [19]: 98.9%
viability, T/C [20]: 94.7%
viability, T/C [21]: 93.7%
viability, T/C [22]: 97.4%
viability, T/C [23]: 89.9%
viability, T/C [24]: 62.4%
viability, T/C [25]: 101%
viability, T/C [26]: 100%
viability, T/C [27]: 105%
viability, T/C [28]: 94.8%
viability, T/C [29]: 95.1%
viability, T/C [30]: 64.6%
viability, T/C [31]: 106%
viability, T/C [32]: 96.1%
viability, T/C [33]: 104%
viability, T/C [34]: 99.6%
viability, T/C [35]: 89%
viability, T/C [36]: 52.6%

Cn1ncnc1[C@H]1c2n[nH]c(=O)c3cc(F)cc(c23)N[C@@H]1c1ccc(F)cc1 + Cc1cccc(N(C)C(=O)C2C(O)CCN2c2nc(C)cc(C(F)(F)F)c2C#N)c1
IC50 (second compound 0.0316 µM): > 0.1 µM
IC50 (second compound 0.1 µM): > 0.1 µM
IC50 (second compound 0.316 µM): > 0.1 µM
IC50 (second compound 1 µM): > 0.1 µM
IC50 (second compound 3.16 µM): > 0.1 µM
IC50 (second compound 10 µM): > 0.1 µM
viability, T/C (second compound 0.0316 µM, first compound 0.000316 µM): 109%
viability, T/C (second compound 0.0316 µM, first compound 0.001 µM): 96.1%
viability, T/C (second compound 0.0316 µM, first compound 0.00316 µM): 96.3%
viability, T/C (second compound 0.0316 µM, first compound 0.01 µM): 103%
viability, T/C [1]: 110%
viability, T/C [2]: 88.6%
viability, T/C (second compound 0.1 µM, first compound 0.000316 µM): 99.2%
viability, T/C (second compound 0.1 µM, first compound 0.001 µM): 96.3%
viability, T/C (second compound 0.1 µM, first compound 0.00316 µM): 105%
viability, T/C (second compound 0.1 µM, first compound 0.01 µM): 101%
viability, T/C [7]: 108%
viability, T/C [8]: 101%
viability, T/C (second compound 0.316 µM, first compound 0.000316 µM): 111%
viability, T/C (second compound 0.316 µM, first compound 0.001 µM): 103%
viability, T/C (second compound 0.316 µM, first compound 0.00316 µM): 114%
viability, T/C (second compound 0.316 µM, first compound 0.01 µM): 105%
viability, T/C [13]: 103%
viability, T/C [14]: 102%
viability, T/C (second compound 1 µM, first compound 0.000316 µM): 110%
viability, T/C (second compound 1 µM, first compound 0.001 µM): 108%
viability, T/C (second compound 1 µM, first compound 0.00316 µM): 109%
viability, T/C (second compound 1 µM, first compound 0.01 µM): 103%
viability, T/C [19]: 100%
viability, T/C [20]: 95.3%
viability, T/C (second compound 3.16 µM, first compound 0.000316 µM): 125%
viability, T/C (second compound 3.16 µM, first compound 0.001 µM): 106%
viability, T/C (second compound 3.16 µM, first compound 0.00316 µM): 112%
viability, T/C (second compound 3.16 µM, first compound 0.01 µM): 101%
viability, T/C [25]: 118%
viability, T/C [26]: 96.9%
viability, T/C (second compound 10 µM, first compound 0.000316 µM): 114%
viability, T/C (second compound 10 µM, first compound 0.001 µM): 103%
viability, T/C (second compound 10 µM, first compound 0.00316 µM): 119%
viability, T/C (second compound 10 µM, first compound 0.01 µM): 102%
viability, T/C [31]: 111%
viability, T/C [32]: 101%
